Molecules are shown by their SMILES. Counter-ions that a name gives are not always drawn.

A short description of data set [1]: Photo stability of bulk substance (Suntest CPS+ cabinet). The following applies: 29 hours.
Method: The exposure was 250 Wh/m^2 and 1.2 million lux hours over 29 hours.
Data set [2] can be described thus: Hygroscopicity by Dynamic Vapour Sorption Analysis (DVS). Format: physicochemical. The following applies: 25° C. On the procedure:
Dynamic Vapour Sorption Analysis (DVS)
The studies were undertaken using Dynamic Vapour Sorption Apparatus (DVS, Surface Measurement Systems, London UK). The apparatus consists of Cahn micobalance housed inside a temperature-controled cabinet. All experiments were performed at 25° C. The DVS was used to characterize the moisture uptake (w/w %) at different relative humidities (RH). Samples (5-10 mg) were weighed directly into the DSV sample cup and exposed to different relative humidities.

For the compound `N#Cc1ccc2[nH]c(O)c(-c3ccc(CN4CCOCC4)cn3)c2c1` [Citrate, 2-hydroxy-3-[5-(morpholin-4-ylmethyl)pyridin-2-yl]1H-indole-5-carbonitrile citrate], in data set [1], the “photo stability compared with the hydrochloride salt and the free base” value was “much higher photo stability”. Also, the moisture uptake in data set [2] (40% relative humidity, citrate) worked out at 7.1 w/w %; in data set [2] (60% relative humidity, citrate), 7.6 w/w %; in data set [2] (80% relative humidity, citrate) it was 8.0 w/w %. Besides, the “hygroscopicity compared with the hydrochloride salt” value in data set [2] (DVS) was “lower hygroscopicity”.

On to `N#Cc1ccc2[nH]c(O)c(-c3ccc(CN4CCOCC4)cn3)c2c1` [HCl, hydrochloride salt of 2-hydroxy-3-[5-(morpholin-4-ylmethyl)pyridin-2-yl]1H-indole-5-carbonitrile, reference compound], for which the moisture uptake is given as 8.7 w/w % in data set [2] (40% relative humidity), 11.5 w/w % in data set [2] (60% relative humidity) and 13.0 w/w % in data set [2] (80% relative humidity).

The values above are taken from patent US20070203137A1, “New Salt” (ASTRAZENECA AB, priority 2006, published 2007).
